# According to US9341839B2, “Electrowetting display device and dye composition for electrowetting display” (FUJIFILM CORPORATION, priority 2012, dated 2016):
# Assay: Solubility of dye in normal decane
# Type: physicochemical
# Conditions: n-decane, 25° C., after heating to 50° C. and leaving 12 hours; 40% by mass added
substance,measurement,value
tetraphenylporphine [Comparative compound H-1],Solubility in Decane,less than 0.1% by mass
